In ChEMBL document CHEMBL5120862, “Novel non-covalent LSD1 inhibitors endowed with anticancer effects in leukemia and solid tumor cellular models” (Eur J Med Chem, 2022):
Activity calls are given as the source filed them. The calls are words filed in the database; no cut-off is given here.

Experiments:
[1] = target: T1, N-lysine methyltransferase KMT5A (Homo sapiens, UniProt Q9NQR1); experiment: Inhibition of SETD8 (unknown origin) using [3H]SAM and HeLa nucleosomes as substrates incubated for 1 hr
T1 sequence (Q9NQR1 whole entry): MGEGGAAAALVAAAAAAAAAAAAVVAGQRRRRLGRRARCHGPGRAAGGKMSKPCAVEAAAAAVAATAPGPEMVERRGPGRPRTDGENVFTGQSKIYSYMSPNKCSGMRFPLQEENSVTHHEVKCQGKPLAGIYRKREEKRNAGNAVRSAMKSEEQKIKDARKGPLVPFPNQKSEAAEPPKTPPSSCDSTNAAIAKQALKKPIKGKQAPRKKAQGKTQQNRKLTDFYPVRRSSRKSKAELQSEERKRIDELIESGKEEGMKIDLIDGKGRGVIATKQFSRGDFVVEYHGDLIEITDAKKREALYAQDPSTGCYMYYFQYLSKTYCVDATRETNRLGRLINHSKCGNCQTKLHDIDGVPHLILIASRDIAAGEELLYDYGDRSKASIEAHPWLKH

[2] = target: T2, N-lysine methyltransferase KMT5A (Homo sapiens) (UniProt Q9NQR1); experiment: Inhibition of SETD8 (unknown origin) using [3H]SAM and HeLa nucleosomes as substrates at 100 uM incubated for 1 hr relative to control
T2 sequence (whole entry): T1 sequence (Q9NQR1 whole entry)

[3] = target: Histone-lysine N-methyltransferase, H3 lysine-79 specific (Homo sapiens) (UniProt Q8TEK3); experiment: Inhibition of […] (unknown origin) using [3H]SAM and HeLa oligo nucleosomes as substrates at 100 uM incubated for 1 hr relative to control
MDA-MB-231 = experiment: Antiproliferative activity against human MDA-MB-231 cells assessed as inhibition of cell growth measured after 72 hrs by MTT assay; format: functional, cell-based; details: MDA-MB-231, 72 h
[4] = target: T3, Histone-lysine N-methyltransferase EHMT2 (Homo sapiens, UniProt Q96KQ7); experiment: Inhibition of G9a (unknown origin) assessed as reduction in substrate methylation using histone H3 and SAM as substrate measured after 15 to 60 mins by microfluidic capillary electrophoresis analysis
T3 sequence (Q96KQ7 whole entry): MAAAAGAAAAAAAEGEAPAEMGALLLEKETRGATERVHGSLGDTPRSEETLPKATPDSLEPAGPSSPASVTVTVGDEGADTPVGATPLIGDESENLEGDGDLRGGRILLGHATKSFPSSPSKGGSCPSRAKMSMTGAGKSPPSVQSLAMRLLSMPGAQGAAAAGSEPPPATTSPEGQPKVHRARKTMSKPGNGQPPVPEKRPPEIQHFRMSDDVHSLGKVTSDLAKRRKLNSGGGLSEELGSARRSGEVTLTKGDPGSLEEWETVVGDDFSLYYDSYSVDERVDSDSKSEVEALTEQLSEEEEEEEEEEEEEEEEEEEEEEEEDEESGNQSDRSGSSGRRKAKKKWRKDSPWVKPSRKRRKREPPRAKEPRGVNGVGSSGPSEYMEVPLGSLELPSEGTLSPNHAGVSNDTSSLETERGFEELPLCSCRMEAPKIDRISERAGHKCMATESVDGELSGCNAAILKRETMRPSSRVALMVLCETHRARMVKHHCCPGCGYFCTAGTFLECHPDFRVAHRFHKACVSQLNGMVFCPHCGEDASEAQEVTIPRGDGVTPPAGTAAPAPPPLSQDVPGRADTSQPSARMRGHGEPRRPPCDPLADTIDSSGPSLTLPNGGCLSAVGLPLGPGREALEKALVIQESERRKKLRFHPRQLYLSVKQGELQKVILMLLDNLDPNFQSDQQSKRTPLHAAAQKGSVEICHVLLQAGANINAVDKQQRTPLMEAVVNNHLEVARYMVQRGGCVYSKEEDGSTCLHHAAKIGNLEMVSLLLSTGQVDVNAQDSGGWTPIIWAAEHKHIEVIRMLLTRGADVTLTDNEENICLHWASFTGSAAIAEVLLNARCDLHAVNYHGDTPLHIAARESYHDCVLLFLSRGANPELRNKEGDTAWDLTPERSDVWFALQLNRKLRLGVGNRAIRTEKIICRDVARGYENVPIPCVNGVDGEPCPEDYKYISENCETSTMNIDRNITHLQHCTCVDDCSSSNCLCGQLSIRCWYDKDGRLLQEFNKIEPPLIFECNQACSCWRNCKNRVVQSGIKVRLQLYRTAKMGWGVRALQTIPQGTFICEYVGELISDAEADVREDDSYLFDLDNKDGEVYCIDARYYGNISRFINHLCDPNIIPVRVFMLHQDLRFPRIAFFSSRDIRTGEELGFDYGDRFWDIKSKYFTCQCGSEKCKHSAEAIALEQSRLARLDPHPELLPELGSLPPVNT

THP-1 [5] = experiment: Antiproliferative activity against human THP-1 cells assessed as inhibition of cell growth incubated for 24 hrs by CellTiter-Glo luminescent cell viability assay; format: functional, cell-based; details: THP-1, 24 h
[6] = target: T4, MAO-A (amine oxidase [flavin-containing] A) (Homo sapiens, UniProt P21397); experiment: Inhibition of human MAO-A using p-tyramine as substrate at 100 uM by fluorimetric analysis relative to control; details: human MAO-A enzyme, probe p-tyramine
T4 sequence (P21397 whole entry): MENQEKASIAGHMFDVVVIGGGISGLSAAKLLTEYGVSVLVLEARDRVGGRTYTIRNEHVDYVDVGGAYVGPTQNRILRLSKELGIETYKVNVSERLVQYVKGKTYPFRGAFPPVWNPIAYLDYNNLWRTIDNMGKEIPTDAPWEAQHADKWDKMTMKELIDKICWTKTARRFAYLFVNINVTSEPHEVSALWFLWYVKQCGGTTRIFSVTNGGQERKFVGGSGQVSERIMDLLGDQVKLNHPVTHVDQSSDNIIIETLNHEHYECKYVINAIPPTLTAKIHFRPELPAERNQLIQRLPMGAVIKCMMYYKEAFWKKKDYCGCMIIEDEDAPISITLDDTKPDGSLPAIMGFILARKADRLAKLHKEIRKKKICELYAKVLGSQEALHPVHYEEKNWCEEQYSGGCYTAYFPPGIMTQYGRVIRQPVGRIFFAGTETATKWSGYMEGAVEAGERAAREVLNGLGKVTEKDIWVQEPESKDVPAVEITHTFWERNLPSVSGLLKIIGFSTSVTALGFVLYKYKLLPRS

THP-1 [7] = experiment: Antiproliferative activity against human THP-1 cells assessed as inhibition of cell growth incubated for 144 hrs by CellTiter-Glo luminescent cell viability assay; format: functional, cell-based; details: THP-1, 144 h
THP-1 [8] = experiment: Antiproliferative activity against human THP-1 cells assessed as inhibition of cell growth incubated for 72 hrs by CellTiter-Glo luminescent cell viability assay; format: functional, cell-based; details: THP-1, 72 h
[9] = target: T5, MAO-B (amine oxidase [flavin-containing] B) (Homo sapiens, UniProt P27338); experiment: Inhibition of human MAO-B using p-tyramine as substrate at 100 uM by fluorimetric analysis relative to control; details: human MAO-B enzyme, probe p-tyramine
T5 sequence (P27338 whole entry): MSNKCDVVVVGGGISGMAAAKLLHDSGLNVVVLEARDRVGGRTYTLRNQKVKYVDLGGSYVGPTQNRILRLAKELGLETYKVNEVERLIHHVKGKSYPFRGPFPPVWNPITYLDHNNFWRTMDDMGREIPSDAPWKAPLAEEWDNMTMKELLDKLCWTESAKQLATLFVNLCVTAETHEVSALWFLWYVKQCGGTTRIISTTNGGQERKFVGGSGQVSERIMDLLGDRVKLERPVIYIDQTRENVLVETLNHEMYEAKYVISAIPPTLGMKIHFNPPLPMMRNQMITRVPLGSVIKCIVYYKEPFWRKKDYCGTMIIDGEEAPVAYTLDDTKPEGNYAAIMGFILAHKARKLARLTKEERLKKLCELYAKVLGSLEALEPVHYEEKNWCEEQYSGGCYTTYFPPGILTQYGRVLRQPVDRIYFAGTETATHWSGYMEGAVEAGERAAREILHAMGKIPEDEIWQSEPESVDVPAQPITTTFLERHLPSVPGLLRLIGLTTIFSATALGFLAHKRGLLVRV

[10] = target: Histone-lysine N-methyltransferase EZH2 (Homo sapiens) (UniProt Q15910); experiment: Inhibition of EZH2 (unknown origin) using [3H]SAM and chicken core histone as substrates at 100 uM incubated for 1 hr relative to control
RD [11] = experiment: Antiproliferative activity against human RD cells assessed as inhibition of cell growth incubated for 24 hrs; format: functional, cell-based
SJRH30 [12] = experiment: Antiproliferative activity against human Rh30 cells assessed as reduction in live cells at 10 uM incubated for 24 hrs by calceinAM/propidium iodide staining based fluorescence microscopy; format: functional, cell-based
RD [13] = experiment: Antiproliferative activity against human RD cells assessed as inhibition of cell growth incubated for 144 hrs; format: functional, cell-based
LSD1/CoREST complex [14] = target: T6, LSD1/CoREST complex (Homo sapiens, UniProt O60341); experiment: Binding affinity to human LSD1/CoREST assessed as dissociation constant by competitive fluorescence polarization assay; format: protein-complex assay
RD [15] = experiment: Antiproliferative activity against human RD cells assessed as inhibition of cell growth incubated for 72 hrs; format: functional, cell-based
SJRH30 [16] = experiment: Induction of apoptosis in human Rh30 cells assessed as increase in caspase 3/7 level at 10 uM incubated for 24 hrs; format: functional, cell-based
LSD1/CoREST complex [17] = target: T6, LSD1/CoREST complex; experiment: Inhibition of human LSD1/CoREST using histone H3 peptide as substrate by fluorescence polarization assay; format: protein-complex assay
SJRH30 [18] = experiment: Antiproliferative activity against human Rh30 cells assessed as inhibition of cell growth incubated for 24 hrs; format: functional, cell-based; details: SJRH30, 24 h
SJRH30 [19] = experiment: Antiproliferative activity against human Rh30 cells assessed as inhibition of cell growth incubated for 144 hrs; format: functional, cell-based; details: SJRH30, 144 h
RD [20] = experiment: Antiproliferative activity against human RD cells assessed as reduction in live cells at 10 uM incubated for 72 hrs by calceinAM/propidium iodide staining based fluorescence microscopy; format: functional, cell-based
SJRH30 [21] = experiment: Antiproliferative activity against human Rh30 cells assessed as inhibition of cell growth incubated for 72 hrs; format: functional, cell-based; details: SJRH30, 72 h

Chain of Histone-lysine N-methyltransferase EZH2 (Homo sapiens) (Q15910 whole entry, looked up): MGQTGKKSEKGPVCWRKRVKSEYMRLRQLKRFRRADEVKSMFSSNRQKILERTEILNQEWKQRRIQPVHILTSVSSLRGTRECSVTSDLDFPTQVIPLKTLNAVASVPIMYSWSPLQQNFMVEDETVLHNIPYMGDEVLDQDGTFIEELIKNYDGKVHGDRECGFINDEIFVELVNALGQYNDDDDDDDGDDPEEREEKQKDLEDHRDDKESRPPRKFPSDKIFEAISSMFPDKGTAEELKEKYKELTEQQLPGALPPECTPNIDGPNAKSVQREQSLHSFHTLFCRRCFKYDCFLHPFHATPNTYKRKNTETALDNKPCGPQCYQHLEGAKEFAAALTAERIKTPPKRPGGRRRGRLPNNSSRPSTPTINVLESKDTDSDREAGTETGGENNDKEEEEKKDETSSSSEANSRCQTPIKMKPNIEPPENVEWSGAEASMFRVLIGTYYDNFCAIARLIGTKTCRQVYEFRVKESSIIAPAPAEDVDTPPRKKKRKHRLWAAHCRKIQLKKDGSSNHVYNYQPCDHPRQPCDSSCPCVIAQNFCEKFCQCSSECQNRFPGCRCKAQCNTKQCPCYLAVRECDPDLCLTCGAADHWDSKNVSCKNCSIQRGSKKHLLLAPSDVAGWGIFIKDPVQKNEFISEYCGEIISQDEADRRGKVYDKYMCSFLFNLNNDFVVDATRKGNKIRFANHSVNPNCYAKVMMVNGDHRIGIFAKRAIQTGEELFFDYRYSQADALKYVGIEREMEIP
Chain of Histone-lysine N-methyltransferase, H3 lysine-79 specific (Homo sapiens) (Q8TEK3 whole entry, looked up): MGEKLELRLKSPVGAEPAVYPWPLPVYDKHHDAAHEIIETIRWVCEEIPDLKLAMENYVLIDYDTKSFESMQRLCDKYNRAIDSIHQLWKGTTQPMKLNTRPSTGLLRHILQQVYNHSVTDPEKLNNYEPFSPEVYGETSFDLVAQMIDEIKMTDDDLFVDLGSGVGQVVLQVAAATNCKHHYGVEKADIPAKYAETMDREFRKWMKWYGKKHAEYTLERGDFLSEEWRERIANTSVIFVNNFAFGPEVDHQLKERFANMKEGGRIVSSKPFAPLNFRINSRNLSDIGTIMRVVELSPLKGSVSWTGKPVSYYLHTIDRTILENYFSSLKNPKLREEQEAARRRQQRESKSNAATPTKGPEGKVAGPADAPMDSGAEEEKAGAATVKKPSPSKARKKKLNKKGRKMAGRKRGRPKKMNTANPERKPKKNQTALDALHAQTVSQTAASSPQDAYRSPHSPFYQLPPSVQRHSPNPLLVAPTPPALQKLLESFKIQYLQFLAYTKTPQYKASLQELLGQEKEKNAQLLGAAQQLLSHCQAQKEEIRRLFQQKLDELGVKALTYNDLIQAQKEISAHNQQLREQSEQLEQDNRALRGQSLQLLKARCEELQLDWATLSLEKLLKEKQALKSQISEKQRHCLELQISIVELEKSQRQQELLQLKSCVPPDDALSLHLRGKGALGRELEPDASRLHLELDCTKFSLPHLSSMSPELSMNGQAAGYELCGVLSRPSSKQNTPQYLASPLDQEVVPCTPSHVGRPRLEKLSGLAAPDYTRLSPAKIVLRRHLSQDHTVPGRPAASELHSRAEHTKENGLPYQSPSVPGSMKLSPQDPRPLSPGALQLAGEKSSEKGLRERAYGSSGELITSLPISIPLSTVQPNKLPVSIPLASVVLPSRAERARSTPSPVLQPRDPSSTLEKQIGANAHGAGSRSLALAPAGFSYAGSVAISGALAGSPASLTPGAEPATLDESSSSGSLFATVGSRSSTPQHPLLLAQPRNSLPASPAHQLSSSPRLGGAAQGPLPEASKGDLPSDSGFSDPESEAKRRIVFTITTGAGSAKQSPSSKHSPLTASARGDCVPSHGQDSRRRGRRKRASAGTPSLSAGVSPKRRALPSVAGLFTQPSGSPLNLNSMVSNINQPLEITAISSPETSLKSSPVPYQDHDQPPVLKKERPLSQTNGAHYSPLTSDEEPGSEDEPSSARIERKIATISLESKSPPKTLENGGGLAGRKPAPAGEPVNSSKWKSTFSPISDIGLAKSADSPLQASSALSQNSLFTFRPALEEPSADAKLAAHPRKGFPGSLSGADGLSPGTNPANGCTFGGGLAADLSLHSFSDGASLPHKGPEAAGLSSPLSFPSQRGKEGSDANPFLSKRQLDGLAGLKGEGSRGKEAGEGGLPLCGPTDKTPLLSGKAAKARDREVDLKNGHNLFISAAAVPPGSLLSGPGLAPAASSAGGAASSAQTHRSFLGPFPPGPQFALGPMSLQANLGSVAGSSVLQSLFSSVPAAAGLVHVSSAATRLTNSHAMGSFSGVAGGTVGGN

**Q.** For `Cc1ccc(NC2=CC(=O)c3sc(C)nc3C2=O)cc1`, which IC50 [1] is on record?
**A.** 370 nM

**Q.** And the inhibition [2]?
**A.** 91.6%

**Q.** With `COc1cc2nc(NCCCN(C)C)nc(NC3CCN(CCCc4ccccc4)CC3)c2cc1OC` as the compound, how does the inhibition [3] read?
**A.** 30.3%

**Q.** What about the IC50 (MDA-MB-231) of the same compound?
**A.** 800 nM

**Q.** And the Ki [4]?
**A.** 690 nM

**Q.** And the IC50 (THP-1 [5])?
**A.** 490 nM

**Q.** What about the inhibition at 100 µM [6] of the same compound?
**A.** 7.4%

**Q.** And the IC50 (THP-1 [7])?
**A.** 220 nM

**Q.** And the IC50 (THP-1 [8])?
**A.** 390 nM

**Q.** And the inhibition at 100 µM [9]?
**A.** 0.3%

**Q.** What about the inhibition [10] of the same compound?
**A.** 2.9%

**Q.** Which results are given for `Cc1ccc(-c2ncc(OC[C@@H]3CCNC3)cc2-c2ccc(C#N)cc2)cc1`?
**A.** IC50 (RD [11]): 12400 nM; Activity (SJRH30 [12]): Active; IC50 (RD [13]): 10200 nM; Kd (LSD1/CoREST complex [14]): 14 nM; IC50 (RD [15]): 11400 nM; Activity (SJRH30 [16]): Active; Ki (LSD1/CoREST complex [17]): 35 nM; IC50 (SJRH30 [18]): 9930 nM; IC50 (SJRH30 [19]): 10300 nM; Activity (RD [20]): Active; IC50 (SJRH30 [21]): 10700 nM
